Results as given in PubChem BioAssay AID2060905 (Molecular Pharmacology Branch, DTP, NCI, 2025).

System: 282377-053-R-J1-PDC complex spheroid viability
Assay: Anticancer human tumor 282377-053-R-J1-PDC patient-derived colon adenocarcinoma cell line growth inhibition [RAS]
Conditions: for IC50: curve of first compound; for viability, T/C: stronger effect = lower value
Text: RAS pathway inhibitors in Combinations in Complex Spheroids
A high-throughput screen of multi-cell type tumor spheroids was designed to identify active combinations of RAS pathway inhibitors and targeted small molecules. Complex spheroids include a stromal component modeled by human endothelial cells (HUVEC) and fibroblasts modeled by human mesenchymal stem cells (MSCs). The concentration ranges selected for each drug and investigational agent were based upon clinically achievable concentrations if the clinical Cmax of the agent was known.
Compounds. The drugs and investigational agents: abemaciclib (NSC768073), cobimetinib (NSC768068), divarasib (GDC6063, NSC841802), docetaxel (NSC628503), GDC-1971 (RLY-1971, NSC841576), gemcitabine (NSC613327), inavolisib (NSC800729), ipatasertib (NSC767898), KB-0742 (NSC834161), MRTX-1133 (NSC836407), osimertinib (NSC779217), RMC-4630 (NSC839698), RMC-6236 (NSC851965), RMC-6291 (NSC852671), Ro-3306 (NSC812927), sapanisertib (NSC764658), SN-38 (NSC673596), staurosporine (NSC755774), SY5609 (NSC837396), and tovorafenib (DAY101, NSC766906), were obtained from the National Cancer Institute (NCI) Developmental Therapeutics Program Chemical Repository. The FDA-approved anticancer drug set is available from the NCI Developmental Therapeutics Program. […] The stock solutions were prepared in dimethyl sulfoxide (DMSO, Sigma-Aldrich, St. Louis, MO, cat. D2650) at 800-fold the tested concentration and stored at -70 degrees C prior to their use. All drugs and investigational agents were tested over a range starting from a high concentration at or near the clinical Cmax and decreasing in half-log increments. If the clinical Cmax for an agent had not been determined, the highest concentration tested was 10 microM.
Cell Culture. All cells were maintained in an incubator at 37 degrees C and 5% CO2 with 95% humidity. The PDC lines were cultured according to standard operating procedures established by the NCI PDMR. All PDCs were thawed and cultured in Matrigel-coated flasks prepared with a working solution of 1X Ham's F-12 nutrient mix, without supplementation (Invitrogen, Waltham, MA, cat. 11765054), 100 U/mL penicillin-streptomycin (Invitrogen, cat. 15140122), and 2.5% Matrigel (Corning Inc., Corning, NY, cat. 354248) for the first three passages. The 362531-283-R-J2-PDC and 782815-120-R-J1-PDC lines were cultured in 6C/Colon 1B media, which includes advanced DMEM/F-12 (Thermo Fisher Scientific, cat. 12634028), 10 mM HEPES (Thermo Fisher Scientific, cat. 15630080), 1X GlutaMAX supplement (Thermo Fisher Scientific, cat. 35050061), 0.1 mg/mL primocin (InvivoGen, San Diego, CA, cat. ant-pm-2), 10% defined fetal bovine serum, heat inactivated (HyClone Laboratories Inc., Logan, UT, cat. SH30070.03HI), 50% L-WRN conditioned media (ATCC, cat. CRL-3276), 1.25 mM N-Acetyl-L-cysteine (Sigma-Aldrich, cat. A9165), 10 mM nicotinamide (Sigma-Aldrich, cat. N0636), 1X B-27 supplement (Thermo Fisher Scientific, cat. 17504044), 1X N-2 supplement (Thermo Fisher Scientific, cat. 17502048), 50 ng/mL human EGF (Thermo Fisher Scientific, cat. PHG0311), and 10 microM Y-27632 dihydrochloride (Tocris Bioscience, cat. 1254). The K12877-001-R-J1-PDC line was cultured in 6I media, which includes all 6C/Colon 1B media plus 10 ng/mL human FGF-10 (PeproTech, cat. 100-26), 1 ng/mL human FGF-2 (PeproTech, cat. 100-18B), 1 µM prostaglandin E2 (Tocris Bioscience, cat. 2296), […] hydrocortisone (Sigma-Aldrich, cat. H4001), and […] bovine insulin (Sigma-Aldrich, cat. I6634). The K86415-001-R-J1-PDC line was cultured in 6D media, which includes all 6C/Colon 1B media components minus the L-WRN conditioned media. The 485176-168-R4-J1-PDC was cultured in PANC media, which includes all 6C/Colon 1B media plus 100 ng/mL human FGF-10 (PeproTech, cat. 100-26), 500 nM SB-431542 (Selleckchem, cat. S1067), and 10 nM gastrin (Tocris Bioscience, cat. 3006). […]

[1] = second compound 0.0316 µM, first compound 0.0316 µM
[2] = second compound 0.0316 µM, first compound 0.1 µM
[3] = second compound 0.1 µM, first compound 0.0316 µM
[4] = second compound 0.1 µM, first compound 0.1 µM
[5] = second compound 0.316 µM, first compound 0.0316 µM
[6] = second compound 0.316 µM, first compound 0.1 µM
[7] = second compound 1 µM, first compound 0.0316 µM
[8] = second compound 1 µM, first compound 0.1 µM
[9] = second compound 3.16 µM, first compound 0.0316 µM
[10] = second compound 3.16 µM, first compound 0.1 µM
[11] = second compound 10 µM, first compound 0.0316 µM
[12] = second compound 10 µM, first compound 0.1 µM
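Further: spheroids exposed to agents for seven days before readout.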
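Wherever viability, T/C is given: luminescence viability as percent of DMSO vehicle control wells.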

## CC(C)NCC(C(=O)N1CCN(c2ncnc3c2C(C)CC3O)CC1)c1ccc(Cl)cc1 (centres undefined) + C#Cc1c(F)ccc2cc(O)cc(-c3ncc4c(N5CC6CCC(C5)N6)nc(OCC56CCCN5CC(F)C6)nc4c3F)c12
Second compound 0.0316 µM
  IC50: > 10000 nM
Second compound 0.1 µM
  IC50: > 10000 nM
Second compound 0.316 µM
  IC50: > 10000 nM
Second compound 1 µM
  IC50: > 10000 nM
Second compound 3.16 µM
  IC50: > 10000 nM
Second compound 10 µM
  IC50: > 10000 nM
[1]
  viability, T/C: 133%
[2]
  viability, T/C: 111%
Second compound 0.0316 µM, first compound 0.316 µM
  viability, T/C: 88.9%
Second compound 0.0316 µM, first compound 1 µM
  viability, T/C: 94.6%
Second compound 0.0316 µM, first compound 3.16 µM
  viability, T/C: 84.1%
Second compound 0.0316 µM, first compound 10 µM
  viability, T/C: 82.3%
[3]
  viability, T/C: 88.5%
[4]
  viability, T/C: 86.5%
Second compound 0.1 µM, first compound 0.316 µM
  viability, T/C: 76.9%
Second compound 0.1 µM, first compound 1 µM
  viability, T/C: 90.3%
Second compound 0.1 µM, first compound 3.16 µM
  viability, T/C: 83.5%
Second compound 0.1 µM, first compound 10 µM
  viability, T/C: 72.2%
[5]
  viability, T/C: 104%
[6]
  viability, T/C: 110%
Second compound 0.316 µM, first compound 0.316 µM
  viability, T/C: 92.8%
Second compound 0.316 µM, first compound 1 µM
  viability, T/C: 83%
Second compound 0.316 µM, first compound 3.16 µM
  viability, T/C: 85.9%
Second compound 0.316 µM, first compound 10 µM
  viability, T/C: 85.3%
[7]
  viability, T/C: 105%
[8]
  viability, T/C: 79.8%
Second compound 1 µM, first compound 0.316 µM
  viability, T/C: 89.2%
Second compound 1 µM, first compound 1 µM
  viability, T/C: 82.5%
Second compound 1 µM, first compound 3.16 µM
  viability, T/C: 63.7%
Second compound 1 µM, first compound 10 µM
  viability, T/C: 69.5%
[9]
  viability, T/C: 98.5%
[10]
  viability, T/C: 96.7%
Second compound 3.16 µM, first compound 0.316 µM
  viability, T/C: 81.4%
Second compound 3.16 µM, first compound 1 µM
  viability, T/C: 77.7%
Second compound 3.16 µM, first compound 3.16 µM
  viability, T/C: 92.1%
Second compound 3.16 µM, first compound 10 µM
  viability, T/C: 70.4%
[11]
  viability, T/C: 83%
[12]
  viability, T/C: 87.7%
Second compound 10 µM, first compound 0.316 µM
  viability, T/C: 88.9%
Second compound 10 µM, first compound 1 µM
  viability, T/C: 91.4%
Second compound 10 µM, first compound 3.16 µM
  viability, T/C: 86.4%
Second compound 10 µM, first compound 10 µM
  viability, T/C: 72.4%

## CC(C)n1nc(-c2ccc3oc(N)nc3c2)c2c(N)ncnc21 + C#Cc1c(F)ccc2cc(O)cc(-c3ncc4c(N5CC6CCC(C5)N6)nc(OCC56CCCN5CC(F)C6)nc4c3F)c12
Second compound 0.0316 µM
  IC50: > 100 nM
Second compound 0.1 µM
  IC50: > 100 nM
Second compound 0.316 µM
  IC50: 88.1 nM
Second compound 1 µM
  IC50: > 100 nM
Second compound 3.16 µM
  IC50: 78.3 nM
Second compound 10 µM
  IC50: > 100 nM
Second compound 0.0316 µM, first compound 0.000316 µM
  viability, T/C: 101%
Second compound 0.0316 µM, first compound 0.001 µM
  viability, T/C: 87.2%
Second compound 0.0316 µM, first compound 0.00316 µM
  viability, T/C: 105%
Second compound 0.0316 µM, first compound 0.01 µM
  viability, T/C: 77.5%
[1]
  viability, T/C: 72.7%
[2]
  viability, T/C: 56.9%
Second compound 0.1 µM, first compound 0.000316 µM
  viability, T/C: 115%
Second compound 0.1 µM, first compound 0.001 µM
  viability, T/C: 107%
Second compound 0.1 µM, first compound 0.00316 µM
  viability, T/C: 89%
Second compound 0.1 µM, first compound 0.01 µM
  viability, T/C: 77.7%
[3]
  viability, T/C: 66.6%
[4]
  viability, T/C: 50.2%
Second compound 0.316 µM, first compound 0.000316 µM
  viability, T/C: 99.8%
Second compound 0.316 µM, first compound 0.001 µM
  viability, T/C: 99.6%
Second compound 0.316 µM, first compound 0.00316 µM
  viability, T/C: 80.8%
Second compound 0.316 µM, first compound 0.01 µM
  viability, T/C: 71.1%
[5]
  viability, T/C: 69.4%
[6]
  viability, T/C: 45.3%
Second compound 1 µM, first compound 0.000316 µM
  viability, T/C: 104%
Second compound 1 µM, first compound 0.001 µM
  viability, T/C: 81.2%
Second compound 1 µM, first compound 0.00316 µM
  viability, T/C: 82.9%
Second compound 1 µM, first compound 0.01 µM
  viability, T/C: 66.4%
[7]
  viability, T/C: 75.9%
[8]
  viability, T/C: 46.8%
Second compound 3.16 µM, first compound 0.000316 µM
  viability, T/C: 87%
Second compound 3.16 µM, first compound 0.001 µM
  viability, T/C: 76%
Second compound 3.16 µM, first compound 0.00316 µM
  viability, T/C: 91.5%
Second compound 3.16 µM, first compound 0.01 µM
  viability, T/C: 81.1%
[9]
  viability, T/C: 76.3%
[10]
  viability, T/C: 42.8%
Second compound 10 µM, first compound 0.000316 µM
  viability, T/C: 108%
Second compound 10 µM, first compound 0.001 µM
  viability, T/C: 91.5%
Second compound 10 µM, first compound 0.00316 µM
  viability, T/C: 84.6%
Second compound 10 µM, first compound 0.01 µM
  viability, T/C: 72%
[11]
  viability, T/C: 52.7%
[12]
  viability, T/C: 60.7%
